Assay results published in the supplement of paper PMC6045584.
± gives the standard deviation of the averaged measurements.

Tests used:
[1] = compound: COc1cc2ncnc(Nc3ccc(F)c(Cl)c3)c2cc1OCCCN1CCOCC1 [GEFITINIB]; assay: surviving fraction relative to DMSO-only wells; higher = less growth inhibition; details: exposure time: 5 days
Summary of the method: (§1)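 A line counted only if its three screens reached replicate Pearson r >0.7 and median Z' >0.3. Tumour cells in log phase were seeded at 250–500 per well in 384-well plates and, after 24 hours, kept in continuous contact with inhibitors at 0.5, 1, 5, 10, 50, 100, 500 and 1000 nM for five days. Surviving fraction was taken from CellTiter-Glo luminescence relative to the median of DMSO-only wells.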

[2] = compound: CC(=O)c1c(C)c2cnc(Nc3ccc(N4CCNCC4)cn3)nc2n(C2CCCC2)c1=O; assay: as above; details: exposure time: 5 days
Summary of the method: as §1

| Test System | surviving fraction ([1]; 0.5 nM) | surviving fraction ([1]; 1 nM) | surviving fraction ([1]; 5 nM) | surviving fraction ([1]; 10 nM) | surviving fraction ([1]; 50 nM) | surviving fraction ([1]; 100 nM) | surviving fraction ([1]; 500 nM) | surviving fraction ([1]; 1000 nM) | surviving fraction ([2]; 0.5 nM) | surviving fraction ([2]; 1 nM) | surviving fraction ([2]; 5 nM) | surviving fraction ([2]; 10 nM) | surviving fraction ([2]; 50 nM) | surviving fraction ([2]; 100 nM) | surviving fraction ([2]; 500 nM) | surviving fraction ([2]; 1000 nM) |
| --- | --- | --- | --- | --- | --- | --- | --- | --- | --- | --- | --- | --- | --- | --- | --- | --- |
| OSHN BONE | 1.1 ± 0.012 | 1.11 ± 0.017 | 1.12 ± 0.013 | 1.13 ± 0.026 | 1.15 ± 0.0076 | 1.15 ± 0.024 | 1.142 ± 0.0066 | 1.11 ± 0.021 | 1.091 ± 0.005 | 1.073 ± 0.0079 | 1.09 ± 0.022 | 1.07 ± 0.018 | 1.12 ± 0.037 | 1.1 ± 0.018 | 1.13 ± 0.02 | 1.08 ± 0.032 |
| LM7 BONE | 0.988 ± 0.039 | 1.01 ± 0.034 | 1.1 ± 0.07 | 1.1 ± 0.036 | 1.12 ± 0.013 | 1.12 ± 0.1 | 0.963 ± 0.054 | 0.825 ± 0.016 | 0.997 ± 0.1 | 0.98 ± 0.14 | 1.108 ± 0.011 | 1.05 ± 0.032 | 1.06 ± 0.093 | 1.09 ± 0.046 | 0.999 ± 0.12 | 1.02 ± 0.0049 |
| SG28 HEADNECK | 1.14 ± 0.071 | 1.2 ± 0.037 | 1.06 ± 0.075 | 1.03 ± 0.035 | 0.758 ± 0.069 | 0.679 ± 0.033 | 0.501 ± 0.059 | 0.504 ± 0.016 | 1.1 ± 0.069 | 1.1 ± 0.13 | 1.08 ± 0.15 | 0.955 ± 0.05 | 1.02 ± 0.16 | 1.02 ± 0.13 | 1 ± 0.058 | 1.07 ± 0.051 |
| MG63 BONE | 1.02 ± 0.024 | 0.998 ± 0.013 | 1.09 ± 0.041 | 1.08 ± 0.038 | 1.11 ± 0.046 | 1.08 ± 0.027 | 0.999 ± 0.033 | 1.01 ± 0.033 | 1.033 ± 0.0085 | 1.01 ± 0.044 | 1.039 ± 0.0042 | 1.04 ± 0.021 | 1.07 ± 0.035 | 1.07 ± 0.031 | 0.914 ± 0.02 | 0.868 ± 0.034 |
| HT1080 SOFT TISSUE | 1.05 ± 0.016 | 1.05 ± 0.035 | 1.05 ± 0.069 | 1.11 ± 0.036 | 1.01 ± 0.029 | 1.03 ± 0.028 | 1.042 ± 0.0056 | 1.01 ± 0.034 | 0.997 ± 0.026 | 1.04 ± 0.017 | 1.05 ± 0.017 | 1.03 ± 0.019 | 1.022 ± 0.0036 | 1 ± 0.041 | 0.9707 ± 0.0071 | 0.958 ± 0.024 |
| HMT3552 BREAST | 0.987 ± 0.065 | 1 ± 0.052 | 0.97 ± 0.038 | 0.952 ± 0.018 | 0.946 ± 0.048 | 0.94 ± 0.036 | 0.94 ± 0.017 | 0.856 ± 0.043 | 1.05 | 1.05 | 0.895 | 0.991 | 1.31 | 1.25 | 1.17 | 1.19 |
| 93VU HEADNECK | – | 1.07 ± 0.075 | 1.08 ± 0.027 | 1.04 ± 0.055 | 0.878 ± 0.044 | 0.751 ± 0.034 | 0.449 ± 0.044 | 0.383 ± 0.062 | 1.09 ± 0.1 | 1.04 ± 0.09 | 1.12 ± 0.049 | 1.07 ± 0.025 | 1.18 ± 0.12 | 1.14 ± 0.14 | 1.17 ± 0.038 | 1.19 ± 0.045 |
| S68 BREAST | 0.936 ± 0.095 | 0.744 ± 0.17 | 1.11 ± 0.34 | 1.09 ± 0.069 | 1.11 ± 0.23 | 0.762 ± 0.093 | 0.728 ± 0.1 | 0.687 ± 0.22 | 0.75 ± 0.08 | 0.809 ± 0.025 | 1.13 ± 0.062 | 1.18 ± 0.033 | 1.01 ± 0.091 | 1.19 ± 0.2 | 0.744 ± 0.043 | 0.79 ± 0.29 |
| KPD BONE | 0.994 ± 0.06 | 1.01 ± 0.04 | 0.84 ± 0.36 | 0.81 ± 0.34 | 1.06 ± 0.1 | 1.04 ± 0.076 | 0.952 ± 0.04 | 0.934 ± 0.029 | 0.924 ± 0.081 | 0.939 ± 0.029 | 1.04 ± 0.05 | 0.961 ± 0.027 | 0.99 ± 0.069 | 0.993 ± 0.072 | 0.775 ± 0.026 | 0.679 ± 0.041 |
| SAOS2 BONE | 1.11 ± 0.021 | 1.04 ± 0.065 | 1.21 ± 0.035 | 1.09 ± 0.05 | 1.12 ± 0.061 | 1.13 ± 0.06 | 1.01 ± 0.038 | 0.907 ± 0.08 | 1.07 ± 0.062 | 1.06 ± 0.034 | 1.13 ± 0.051 | 1.09 ± 0.037 | 1.1287 ± 0.00058 | 1.138 ± 0.0069 | 1.13 ± 0.065 | 1.07 ± 0.013 |
| CME SYNOVIAL | 1.32 ± 0.14 | 1.3 ± 0.036 | 1.4 ± 0.12 | 1.44 ± 0.17 | 1.39 ± 0.12 | 1.41 ± 0.17 | 1.28 ± 0.096 | 1.18 ± 0.047 | 1.23 ± 0.18 | 1.27 ± 0.14 | 1.3 ± 0.18 | 1.18 ± 0.11 | 1.37 ± 0.062 | 1.23 ± 0.099 | 1.22 ± 0.066 | 1.09 ± 0.14 |
